Test results: US5770623A, “Argine antagonists for inhibition of systemic hypotension associated with nitric oxide production or endothelial derived relaxing factor” (Board of Regents, The University of Texas System, priority 1995, dated 1998)
Entries after “also recorded” stand apart in the source; their conditions may differ.

Legend:
[1] = tested on: systemic hypotension mediated by interleukin-1; test: Interleukin-1 mediated systemic hypotension; format: in vivo; conditions: after N^G-aminoarginine
untreated dogs [2] = format: in vivo, dog
Protocol: Recombinant human TNF specific activity 2×10^7 units/mg, was from the Niposn Chemical Corporation, Tokyo, Japan. TNF was administered at a dose of 10 mcg/kg in a volume of 10 ml of phosphate buffered saline containing 2 mgs/ml of dog albumin. […] Arginine was obtained from Sigma Chemical Company, St. Louis, Mo.
Four conditioned mongrel dogs, 2 males and 2 females, weighing 28 to 30 kgs, were studied. Care of the animals were in accordance with the recommendation of the American Association for Accreditation of Laboratory Animals [DHEW(DHHS) publication no. (NIH) 78-23, revised, 1978]. On the day of the experiment, the dogs were fasted overnight. They were anesthetized with phenobarbital (10 mg/kg). They were then intubated orally with a #10 fr. endotracheal tube and ventilated with a Harvard pump ventilator at a rate of 12 breaths per minute and a tidal volume of 15 ml/kg. An arterial line was percutaneously placed in the femoral artery on the day of the experiment.
Mean (electronic) and phasic systemic arterial pressures (SAP) were continuously recorded on a Hewlett-Packard recording system (model 7758B) using strain gauge manometers (Hewlett-Packard model 1290A) which were connected to the arterial line. Heart rate (HR) was determined from an EKG tracing and continuously recorded on the Hewlett-Packard recording system. Oxyhemoglobin saturation (SaO2) was obtained using a pulse oximeter (BIOX 111, Boulder, Colo.). continuous time-series records of SAP, HR, and SaO2 were obtained using a Lab Master analog-to-digital convertor (16 channel, 12 bit, 30 kHz; Scientific Solutions, Inc.) sampling at 55 Hz and storing the 6 sec averages on a magnetic disk.
This was followed by a compensatory decrease in the HR with a return of the BP to baseline. The NMMA-induced bradycardia lasted 31 minutes. This response was not observed in animals which had been previously treated with TNF. In a subsequent experiment (FIG. 7a) the hypotensive response to TNF was especially severe, with a decrease in BP from 125 mm to 36 mmHg. […] This was associated with a decrease in the HR from 101 to 92 beats/minute. […] In a second control study nitroglycerin was infused at a rate of 28 μg/kg/minute, IV, to lower the blood pressure to the same level as that observed with tumor necrosis factor (FIG. 7c).

rat aorta = test: ACh-induced relaxation of rat aorta; conditions: NMMA 5 μM
Protocol: (§1) Guinea pig pulmonary artery (GP PA), rat and rabbit aorta (Ao), and dog coronary (CA) and femoral artery (FA) were precontracted with NE (1 μM) and relaxed with a single concentration of ACh. Concentration of ACh: GP PA 1 μM, rat Ao […], rabbit Ao 0.3, dog CA […] and […] 0.1 μM. […] The concentrations of L-citrulline (L-cit), D-arginine (D-arg) and L-arginine (L-arg) were all 0.5 mM. Bars are mean values±SEM (n=4-6).

[3] = target: EMT6 enzyme system (NO formation from L-arginine) (Mus musculus, UniProt P29477); test: Arginine-dependent nitrite synthesis by cytosol of stimulated EMT6 cells; format: biochemical, murine; conditions: Lineweaver-Burke
Chain of EMT6 enzyme system (NO formation from L-arginine) (P29477 whole entry): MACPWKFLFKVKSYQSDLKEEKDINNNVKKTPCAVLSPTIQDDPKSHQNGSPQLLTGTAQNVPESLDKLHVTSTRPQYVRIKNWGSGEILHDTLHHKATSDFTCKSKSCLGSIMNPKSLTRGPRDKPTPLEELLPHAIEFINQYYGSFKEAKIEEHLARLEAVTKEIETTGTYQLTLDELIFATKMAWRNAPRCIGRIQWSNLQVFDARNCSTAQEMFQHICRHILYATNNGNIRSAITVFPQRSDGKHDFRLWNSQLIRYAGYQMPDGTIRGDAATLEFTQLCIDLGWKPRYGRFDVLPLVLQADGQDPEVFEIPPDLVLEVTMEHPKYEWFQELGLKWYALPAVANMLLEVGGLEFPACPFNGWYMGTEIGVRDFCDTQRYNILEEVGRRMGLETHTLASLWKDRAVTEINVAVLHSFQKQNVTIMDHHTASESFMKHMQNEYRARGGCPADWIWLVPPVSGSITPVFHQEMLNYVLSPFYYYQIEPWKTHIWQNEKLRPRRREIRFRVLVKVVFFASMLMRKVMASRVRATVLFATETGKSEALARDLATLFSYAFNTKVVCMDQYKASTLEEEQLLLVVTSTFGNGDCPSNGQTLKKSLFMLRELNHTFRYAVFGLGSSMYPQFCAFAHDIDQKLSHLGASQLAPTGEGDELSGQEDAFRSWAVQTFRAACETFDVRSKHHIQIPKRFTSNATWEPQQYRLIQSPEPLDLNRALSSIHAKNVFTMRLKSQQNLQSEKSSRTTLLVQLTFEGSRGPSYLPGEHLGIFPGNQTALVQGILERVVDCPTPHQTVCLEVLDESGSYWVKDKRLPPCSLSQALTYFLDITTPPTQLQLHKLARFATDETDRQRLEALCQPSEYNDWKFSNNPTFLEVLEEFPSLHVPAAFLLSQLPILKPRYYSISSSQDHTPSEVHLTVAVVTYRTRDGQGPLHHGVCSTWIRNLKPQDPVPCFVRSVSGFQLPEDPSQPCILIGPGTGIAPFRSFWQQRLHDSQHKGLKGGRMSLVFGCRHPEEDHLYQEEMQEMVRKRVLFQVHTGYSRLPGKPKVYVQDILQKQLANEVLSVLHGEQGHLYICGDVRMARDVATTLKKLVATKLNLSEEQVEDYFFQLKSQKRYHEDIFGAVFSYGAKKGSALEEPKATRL
Protocol: Thus EMT6 cytosolic preparations (i.e., cell-free solutions) were prepared and an enzyme activity was characterized which forms NO and citrulline from arginine. This reaction requires NADPH (FIG. 18 and 19) and other cofactors.
Incubation mixtures were 100 μl total volume containing: 40 μl cytosol (100,000×g supernatant), 2 mM L-arginine, 2 mM NADPH, 20 mM TRIS (pH 8.0) and a "cocktail" of protease inhibitors.
From kinetic studies an apparent Michaelis-Menton constant for L-arginine utilization by the enzyme was deduced. FIG. 20 is a Lineweaver-Burke plot for synthesis of nitrite from L-arginine by cytosol from stimulated EMT6 cells. The rate of nitrite formation was evaluated over a range of L-arginine (ARG) concentrations (from 0.03-2.0 mM) under conditions similar to that described for FIG. 18, except that incubates contained 50 μl cytosol in a total volume of 80 μl. Open and filled circles represent results obtained with each of two cytosol preparations. […] N^G -substituted arginine analogs were screened for precise quantitation of their ability to inhibit arginine-dependent NO formation by the EMT6 enzyme system.

[4] = tested on: mongrel dogs with TNF-induced hypotension; conditions: Kilbourn et al. 1990; listed as L-NMA; cited from earlier work
[5] = tested on: dog coronary (CA) and femoral artery (FA); test: ACh-induced relaxation of dog coronary and femoral artery; conditions: NMMA 100 μM
Protocol: as §1

[6] = tested on: human LAK cells against Raji target cells; test: IL-2 mediated lymphokine activated killer cell activity in vitro; format: cell-based
Protocol: *% Lysis calculated from the % of release of radioactivity from ^51
Crlabeled Raji Target cells minus spontaneous release.

[7] = tested on: bovine aortic endothelial cells (BAEC); test: A23187-stimulated nitrite release from bovine aortic endothelial cells; format: cell-based; conditions: 3 μg/ml A23187, 4-hour, FIG. 12
Protocol: The % inhibition of relaxation is calculated from the maximum ACh-induced relaxation observed in the presence of the arginine analog relative to that in its absence. Points represent mean values±SEM (n=4-6). […] Another N^G substitution tested for inhibition of induced nitrite release had two methyl groups on one of the arginine guanidino nitrogens. Concentration-response relationships for inhibition of A23187-stimulated nitrite release by bovine aortic endothelial cells (BAEC) are shown in FIG. 9a for the N,N-disubstituted derivative in comparison with several monosubstituted derivatives. Nitrite production was measured as an indication of nitric oxide synthesis since nitric oxide spontaneously decays to nitrite. Nitrite production by BAEC in a 2-hr. period was assessed in an L-arginine-free medium alone or in the presence of the indicated concentration of arginine analogs. The points plotted represent means±S.E. of the percent inhibition of nitrite production observed in 3 individual BAEC culture wells. The key on FIG. 9a indicates the groups substituted on the guanidino nitrogens of L-arginine.
Points are mean values±SEM (n=3).

L929 cells = test: Cytolytic activity of rh-TNF against Actinomycin D-treated L929 cells; format: cell-based, murine
Protocol: TNF bioactivity was measured by the cytotoxicity towards murine L929 cells, in vitro.

[8] = tested on: murine endothelial cells exposed to Gamma-Interferon and TNF (nitric oxide production); conditions: mouse endothelial cells, immunomodulators and endotoxin; cited from earlier work
anesthetized guinea pig = test: Pressor effect in the anesthetized guinea pig; format: in vivo; conditions: 1-10 mg/kg i.v. (L-NMA)
Excerpt: Points are mean changes in diastolic arterial pressure (±SEM; n=4-5). Control systolic and diastolic BP was 75±3 and 51±3 mm Hg, respectively.

untreated dogs [9] = test: NMMA in untreated dogs (Example 5); format: in vivo, dog
Protocol: Administration of ET to dogs was clearly more toxic and less predictable than TNF administration. […] Within 1.5 minutes the blood pressure increased by 33±2.5 mmHg.

Question: For `N=C(N)NCCC[C@H](N)C(=O)O` [L-arginine, reference compound], which “effect of L-arginine on the reversal” value [1] is on record?
Answer: obviated this reversal

Question: What does the source list for `CNC(=N)NCCC[C@H](N)C(=O)O` [NMMA, N^G -methyl-L-arginine]?
Answer: duration of NMMA-induced bradycardia (untreated dogs [2]; dog, in vivo): 31 min; time to initial blood pressure increase (untreated dogs [2]; untreated dogs (n=3), NMMA alone): ≤ 1.7 min; time within which blood pressure increased (untreated dogs [2]; untreated dogs, FIG. 7b): ≤ 2 min; blood pressure increase by NMMA (untreated dogs [2]; untreated dogs, FIG. 7b, within 2 minutes): 12 mmHg; HR after NMMA (untreated dogs [2]; untreated dogs, FIG. 7b, decrease from 101): 92 beats/minute; inhibition of EDRF/NO in vascular preparation (rat aorta): arginine reversible inhibitor of EDRF/NO; mode of inhibition [3]: competitive inhibitor; reversal of TNF-induced hypotension [4]: completely reversed; also recorded: substantially reversed; inhibition of EDRF/NO in vascular preparation [5]: arginine reversible inhibitor of EDRF/NO; % Target Cell Lysis ([6]; [NMMA] 2.0 mM, E:T = 80:1, 40 U/ml IL2): 75.1 ± 4.1%; effect on proliferation phase or lytic phase of LAK cells ([6]; exposed to IL-2, in vitro): did not alter; anti-tumor activity of IL-2 in vitro ([6]; in vitro): does not inhibit the anti-tumor activity; effect on EDRF/NO (nitrite) release [7]: inhibits EDRF/NO release; TNF Activity (L929 cells; [NMMA] 0.125 mM): 536.9 Units/ml; TNF Activity (L929 cells; [NMMA] 0.250 mM): 538.2 Units/ml; TNF Activity (L929 cells; [NMMA] 0.500 mM): 562.4 Units/ml; TNF Activity (L929 cells; [NMMA] 1.0 mM): 415.7 Units/ml; effect on cytolytic effect of TNF towards tumor cells (L929 cells; murine L929 cells, in vitro): did not alter the cytolytic effect of TNF; effect on nitrite accumulation [8]: blocked; effect on diastolic BP / pressor effect (words) (anesthetized guinea pig): increase the resting blood pressure; effect on diastolic BP / pressor effect (words) (anesthetized guinea pig; listed as L-NMA): sustained rise in diastolic BP; increase in blood pressure by NMMA (untreated dogs [9]; normal untreated dog, compared with 20 mg/kg NMMA in lethal shock): 35 mm; increase in blood pressure by NMMA (untreated dogs [9]; untreated animals): 12 mm Hg
